# Source: US20130338130A1 (priority 2009, published 2013)
# Read-outs that look alike come from different tables or passages of the source.
# What was measured:
# [1] = tested on: ATCC strain 43300 Staphylococcus aureus; conditions: ATCC strain 43300 (MRSA); cited from earlier work
# [2] = tested on: ATCC strain 43300 Staphylococcus aureus
# Description: Additional antibiotic was added every 24 hours. The growth periods tested were 24 (see FIG. 4), 48, 72, 96 and 120 hours.
# (§1) USP<51> Antimicrobial Effectiveness protocol was used as the template experimental paradigm. […] All concentrations were plated out to the 10^−7 dilutions to ascertain cfu/ml. […] Additional antibiotic was added at the initial concentration every 24 hours.
# ATCC strain 43300 Staphylococcus aureus was streaked out for isolations. An isolated colony was chosen, streaked again and incubated. Isolate was chosen and then diluted to a McFarland standard of one. The estimated value was then taken to inoculate tubes containing growth media and 12, 30 or 60 μg/ml oxacillin with approximately 10^5 cfu/ml. These tubes were incubated and plated for counting cfu. A clone having no observed log reduction in cfu was selected for the rest of the experiment.
# Material was calculated on a 10 ml volume. Sterile oxacillin was added to each experimental condition to a final concentration of 12, 30 or 60 μg/ml antibiotic.
# All tubes were then inoculated with a dilution of the selected ATCC strain 43300 Staphylococcus aureus clone giving a final level of colony forming units of 3.3×10^5/ml (log=5.52). The tubes were incubated at 25° C. and mixed periodically. Antibiotic was re-inoculated every 24 hours at the initial concentration to maintain pressure on the organism. Plating was done at 24, 48, 72, and 120 hours. Each condition was plated by diluting 1 ml of growth material into 9 ml of MLB diluent broth. […] This mixture was serial diluted down to 10^−7 with 1 ml placed in triplicate in a sterile petri dish at each dilution point. 20 mls of TSA was added to each dilution, swirled and allowed to solidify. All dilutions were placed in a 35° C. incubator for 24 to 72 hours. Bacterial colonies on each plate were counted and the average taken then changed into log format. Any cfu/ml observed greater than 3.3×10^5 (log=5.5) were recorded as >3.3×10^5.
# The tube was then taken out of the experiment and tested for ATCC strain 43300 Staphylococcus growth. The tube was spun down at 5000 rpm for 10 minutes. The supernatant was then decanted into 90 mls of Mueller-Hinton broth with 6 μg/ml oxacillin. This is for enrichment and the recovery of any MRSA cells that may be present whether healthy or stressed. The pellet had 10 mls Mueller-Hinton broth with 6 μg/ml oxacillin added to it to recover any cells that may be present. Both vessels were incubated at 35° C. for 48 hours followed by plating every 24 hours. Each vessel was plated at 10 dilutions to obtain a 1 cfu detection limit.
# [3] = tested on: ATCC strain 43300 Staphylococcus aureus; conditions: for survival (cfu/ml): 24 hours, triplicate platings
# Description: Additional antibiotic was added every 24 hours. The growth periods tested were 24 (FIG. 5), 48, 72, 96 and 120 hours.
# as §1
# ATCC strain 43300 Staphylococcus aureus was streaked out for isolations. An isolated colony was chosen, streaked again and incubated. Isolate was chosen and then diluted to a McFarland standard of one. The estimated value was then taken to inoculate tubes containing growth media and 12, 30 or 60 μg/ml methicillin with approximately 10^5 cfu/ml. These tubes were incubated and plated for counting cfu.
# Material was calculated on a 10 ml volume. Sterile methicillin was added to each experimental condition to a final concentration of 12, 30 or 60 μg/ml antibiotic. Lactose Broth positive controls both with and without the 12 μg/ml, 30 μg/ml, 60 μg/ml antibiotic were inoculated with MRSA. […] Tubes were set up in singlet, but plated in triplicate, as described below.
# All tubes were then inoculated with a dilution of the selected ATCC strain 43300 Staphylococcus aureus clone giving a final level of colony forming units of 1.49×10^5/ml (log=5.17). The tubes were incubated at 25° C. and mixed periodically. Antibiotic was re-inoculated every 24 hours at the initial concentration to maintain pressure on the organism. Plating was done at 24, 48, 72, and 120 hours. Each condition was plated by diluting 1 ml of growth material into 9 ml of MLB diluent broth. […] This mixture was serial diluted down to 10^−7 with 1 ml placed in triplicate in a sterile petri dish at each dilution point. 20 mls of TSA was added to each dilution, swirled and allowed to solidify. All dilutions were placed in a 35° C. incubator for 24 to 72 hours. Bacterial colonies on each plate were counted and the average taken then changed into log format. […] Graphs were recorded as log of 5.2 for TNTC to show comparison among the other data points.
# The tubes were spun down at 5000 rpm for 10 minutes. The supernatant was then decanted into 90 mls of Mueller-Hinton broth with 6 μg/ml methicillin. This is for enrichment and the recovery of any MRSA cells that may be present wether healthy or stressed. The pellet had 10 mls Mueller-Hinton broth with 6 μg/ml methicillin added to it to recover any cells that may be present. Both vessels were incubated at 35° C. for 48 hours and plated each 24 hours. Each vessel was plated at 10 dilutions to obtain a 1 cfu detection limit. Since all vessels were at a 1/10 dilution in the enrichment solution plating each vessel in this manner gave us a detection limit of 1 cfu/ml. […] This time point for graphing purposes will be reported as 0 logs.
compound,measurement,setting,value
"Cc1onc(-c2ccccc2)c1C(=O)N[C@@H]1C(=O)N2[C@@H]1SC(C)(C)[C@@H]2C(=O)O [oxacillin, reference compound]",MIC,[1],6 µg/mL
same,survival (cfu/ml),"[2]; 12 μg/ml oxacillin (re-added every 24 hours) + MSM (% in label), 24 hours, three columns = triplicate platings, inoculum 3.3×10^5/ml",>3.3 × 10^5 cfu/ml
same,"survival, Average Log","[2]; 12 μg/ml oxacillin + MSM (% in label), 24 hours",5.5 Log
same,"survival, Average Log","[2]; 12 μg/ml oxacillin + MSM (% in label), 48 hours",5.5 Log
same,survival (cfu/ml),"[2]; 12 μg/ml oxacillin + MSM (% in label), 48 hours, triplicate platings",>3.3 × 10^5 cfu/ml
same,"survival, Average Log","[2]; 12 μg/ml oxacillin + MSM (% in label), 72 hours",5.5 Log
same,survival (cfu/ml),"[2]; 12 μg/ml oxacillin + MSM (% in label), 72 hours, triplicate platings",>3.3 × 10^5 cfu/ml
same,"survival, Average Log","[2]; 12 μg/ml oxacillin + MSM (% in label), 96 hours",5.5 Log
same,survival (cfu/ml),"[2]; 12 μg/ml oxacillin + MSM (% in label), 96 hours, triplicate platings",>3.3 × 10^5 cfu/ml
same,"survival, Average Log","[2]; 12 μg/ml oxacillin + MSM (% in label), 120 hours",5.5 Log
same,survival (cfu/ml),"[2]; 12 μg/ml oxacillin + MSM (% in label), 120 hours, triplicate platings",>3.3 × 10^5 cfu/ml
same,"survival, Average Log","[2]; 30 μg/ml oxacillin + MSM (% in label), 24 hours",5.5 Log
same,survival (cfu/ml),"[2]; 30 μg/ml oxacillin + MSM (% in label), 24 hours, triplicate platings",>3.3 × 10^5 cfu/ml
same,"survival, Average Log","[2]; 30 μg/ml oxacillin + MSM (% in label), 48 hours",5.5 Log
same,survival (cfu/ml),"[2]; 30 μg/ml oxacillin + MSM (% in label), 48 hours, triplicate platings",>3.3 × 10^5 cfu/ml
same,"survival, Average Log","[2]; 30 μg/ml oxacillin + MSM (% in label), 72 hours",5.5 Log
same,survival (cfu/ml),"[2]; 30 μg/ml oxacillin + MSM (% in label), 72 hours, triplicate platings",>3.3 × 10^5 cfu/ml
same,"survival, Average Log","[2]; 30 μg/ml oxacillin + MSM (% in label), 96 hours",5.5 Log
same,survival (cfu/ml),"[2]; 30 μg/ml oxacillin + MSM (% in label), 96 hours, triplicate platings",>3.3 × 10^5 cfu/ml
same,"survival, Average Log","[2]; 30 μg/ml oxacillin + MSM (% in label), 120 hours",5.5 Log
same,survival (cfu/ml),"[2]; 30 μg/ml oxacillin + MSM (% in label), 120 hours, triplicate platings",>3.3 × 10^5 cfu/ml
same,"survival, Average Log","[2]; 60 μg/ml oxacillin + MSM (% in label), 24 hours",5.5 Log
same,survival (cfu/ml),"[2]; 60 μg/ml oxacillin + MSM (% in label), 24 hours, triplicate platings",>3.3 × 10^5 cfu/ml
same,"survival, Average Log","[2]; 60 μg/ml oxacillin + MSM (% in label), 48 hours",5.5 Log
same,survival (cfu/ml),"[2]; 60 μg/ml oxacillin + MSM (% in label), 48 hours, triplicate platings",>3.3 × 10^5 cfu/ml
same,"survival, Average Log","[2]; 60 μg/ml oxacillin + MSM (% in label), 72 hours",5.5 Log
same,survival (cfu/ml),"[2]; 60 μg/ml oxacillin + MSM (% in label), 72 hours, triplicate platings",>3.3 × 10^5 cfu/ml
same,"survival, Average Log","[2]; 60 μg/ml oxacillin + MSM (% in label), 96 hours",5.5 Log
same,survival (cfu/ml),"[2]; 60 μg/ml oxacillin + MSM (% in label), 96 hours, triplicate platings",>3.3 × 10^5 cfu/ml
same,"survival, Average Log","[2]; 60 μg/ml oxacillin + MSM (% in label), 120 hours",5.5 Log
same,survival (cfu/ml),"[2]; 60 μg/ml oxacillin + MSM (% in label), 120 hours, triplicate platings",>3.3 × 10^5 cfu/ml
same,decrease in colony forming units from the initial inoculums value,"[2]; oxacillin alone, 12 μg/ml, 30 μg/ml and 60 μg/ml",no significant decrease in colony forming units
"COc1cccc(OC)c1C(=O)N[C@@H]1C(=O)N2[C@@H]1SC(C)(C)[C@@H]2C(=O)O [methicillin, reference compound]",survival (cfu/ml),"[3]; 12 μg/ml methicillin (re-added every 24 hours) + MSM (% in label), inoculum 1.49×10^5/ml",TNTC
same,survival (cfu/ml),[3]; 30 μg/ml methicillin + MSM (% in label),TNTC
same,survival (cfu/ml),[3]; 60 μg/ml methicillin + MSM (% in label),TNTC
same,decrease in colony forming units from the initial inoculums value,"[3]; methicillin alone, 12 μg/ml, 30 μg/ml and 60 μg/ml",no significant decrease in colony forming units
same,MIC,[1],6 µg/mL
